Test results taken from US10556905B2, “Processes for preparing a diazabicyclooctane compound” (priority 2012, dated 2020).
In brackets after ≈: the same amount, converted by molar mass.

Experiments:
[1] = system: multi-drug resistant tuberculosis (MDR-TB); assay: Anti-tubercle bacillus activity, liquid medium dilution MIC; format: cell-based; settings: for MIC: Bacillus, 168 h, read-out: antibacterial activity (MIC) of β-lactam agent alone
[2] = system: extensively drug-resistant tuberculosis (XDR-TB); assay: as above; format: cell-based; settings: for MIC: Bacillus, 168 h, read-out: antibacterial activity (MIC) of β-lactam agent alone

SMILES: CC1(C)S[C@@H]2[C@H](NC(=O)[C@H](N)c3ccccc3)C(=O)N2[C@H]1C(=O)O [ABPC, ampicillin, reference compound]
- MIC [1]: 128 µg/mL (≈ 366 µM)
- MIC [2]: 32 µg/mL (≈ 91.6 µM)

SMILES: CC1(C)S[C@@H]2[C@H](NC(=O)[C@H](N)c3ccc(O)cc3)C(=O)N2[C@H]1C(=O)O [AMPC, amoxicillin, reference compound]
- MIC [1]: 128 µg/mL (≈ 350 µM)
- MIC [2]: 64 µg/mL (≈ 175 µM)

SMILES: C[C@@H](O)[C@H]1C(=O)N2C(C(=O)[O-])=C(SC3Cn4cnc[n+]4C3)[C@H](C)[C@H]12 (some centres unmarked) [BIPM, biapenem, reference compound]
- MIC [1]: 16 µg/mL (≈ 45.7 µM)
- MIC [2]: 2 µg/mL (≈ 5.71 µM)

SMILES: NCCONC(=O)[C@@H]1CC[C@@H]2CN1C(=O)N2OS(=O)(=O)O [Example 59, (2S,5R)—N-(2-Aminoethoxy)-7-oxo-6-(sulfooxy)-1,6-diazabicyclo[3.2.1]octane-2-carboxamide]
- antibacterial activity (MIC) of ABPC in combinatorial use ([1]; ABPC + 4 μg/mL compound, MDR-TB): 32 µg/mL
- antibacterial activity (MIC) of AMPC in combinatorial use ([1]; AMPC + 4 μg/mL compound, MDR-TB): 64 µg/mL
- antibacterial activity (MIC) of BIPM in combinatorial use ([1]; BIPM + 4 μg/mL compound, MDR-TB): 4 µg/mL
- antibacterial activity (MIC) of MEPM in combinatorial use ([1]; MEPM + 4 μg/mL compound, MDR-TB): 8 µg/mL
- antibacterial activity (MIC) of TBPM in combinatorial use ([1]; TBPM + 4 μg/mL compound, MDR-TB): 2 µg/mL
- antibacterial activity (MIC) of ABPC in combinatorial use ([2]; ABPC + 4 μg/mL compound, XDR-TB): 16 µg/mL
- antibacterial activity (MIC) of AMPC in combinatorial use ([2]; AMPC + 4 μg/mL compound, XDR-TB): 16 µg/mL
- antibacterial activity (MIC) of BIPM in combinatorial use ([2]; BIPM + 4 μg/mL compound, XDR-TB): 1 µg/mL
- antibacterial activity (MIC) of MEPM in combinatorial use ([2]; MEPM + 4 μg/mL compound, XDR-TB): 1 µg/mL
- antibacterial activity (MIC) of TBPM in combinatorial use ([2]; TBPM + 4 μg/mL compound, XDR-TB): 0.5 µg/mL

SMILES: C[C@@H](O)[C@H]1C(=O)N2C(C(=O)O)=C(S[C@@H]3CN[C@H](C(=O)N(C)C)C3)[C@H](C)[C@H]12 [MEPM, meropenem, reference compound]
- MIC [1]: 16 µg/mL (≈ 41.7 µM)
- MIC [2]: 4 µg/mL (≈ 10.4 µM)

SMILES: C[C@@H](O)[C@H]1C(=O)N2C(C(=O)O)=C(SC3CN(C4=NCCS4)C3)[C@H](C)[C@H]12 [TBPM, tebipenem, reference compound]
- MIC [1]: 4 µg/mL (≈ 10.4 µM)
- MIC [2]: 1 µg/mL (≈ 2.61 µM)
